Measurements taken from patent publication US20080108569A1, “Compositions and Methods for Treating Diseases Associated With Phlpp” (The Regents of the University of California, priority 2005, published 2008).

Columns and labels:
PHLPP-1α = target: T1, PHLPP-1α (Homo sapiens, UniProt O60346); assay: okadaic acid sensitivity of PHLPP-1α mediated dephosphorylation of Akt at Ser473 in 293T cells; type: cell-based; conditions: OA 1 μM for 15 minutes, 293T cells transfected with HA-PHLPP-1α
T1 construct: The full-length human PHLPP-1α cDNA was cloned by combining the following cDNA fragments; expressed in transfected cells; host or cells: 293T cells
T1 sequence (O60346 1-1205 isoform O60346-2): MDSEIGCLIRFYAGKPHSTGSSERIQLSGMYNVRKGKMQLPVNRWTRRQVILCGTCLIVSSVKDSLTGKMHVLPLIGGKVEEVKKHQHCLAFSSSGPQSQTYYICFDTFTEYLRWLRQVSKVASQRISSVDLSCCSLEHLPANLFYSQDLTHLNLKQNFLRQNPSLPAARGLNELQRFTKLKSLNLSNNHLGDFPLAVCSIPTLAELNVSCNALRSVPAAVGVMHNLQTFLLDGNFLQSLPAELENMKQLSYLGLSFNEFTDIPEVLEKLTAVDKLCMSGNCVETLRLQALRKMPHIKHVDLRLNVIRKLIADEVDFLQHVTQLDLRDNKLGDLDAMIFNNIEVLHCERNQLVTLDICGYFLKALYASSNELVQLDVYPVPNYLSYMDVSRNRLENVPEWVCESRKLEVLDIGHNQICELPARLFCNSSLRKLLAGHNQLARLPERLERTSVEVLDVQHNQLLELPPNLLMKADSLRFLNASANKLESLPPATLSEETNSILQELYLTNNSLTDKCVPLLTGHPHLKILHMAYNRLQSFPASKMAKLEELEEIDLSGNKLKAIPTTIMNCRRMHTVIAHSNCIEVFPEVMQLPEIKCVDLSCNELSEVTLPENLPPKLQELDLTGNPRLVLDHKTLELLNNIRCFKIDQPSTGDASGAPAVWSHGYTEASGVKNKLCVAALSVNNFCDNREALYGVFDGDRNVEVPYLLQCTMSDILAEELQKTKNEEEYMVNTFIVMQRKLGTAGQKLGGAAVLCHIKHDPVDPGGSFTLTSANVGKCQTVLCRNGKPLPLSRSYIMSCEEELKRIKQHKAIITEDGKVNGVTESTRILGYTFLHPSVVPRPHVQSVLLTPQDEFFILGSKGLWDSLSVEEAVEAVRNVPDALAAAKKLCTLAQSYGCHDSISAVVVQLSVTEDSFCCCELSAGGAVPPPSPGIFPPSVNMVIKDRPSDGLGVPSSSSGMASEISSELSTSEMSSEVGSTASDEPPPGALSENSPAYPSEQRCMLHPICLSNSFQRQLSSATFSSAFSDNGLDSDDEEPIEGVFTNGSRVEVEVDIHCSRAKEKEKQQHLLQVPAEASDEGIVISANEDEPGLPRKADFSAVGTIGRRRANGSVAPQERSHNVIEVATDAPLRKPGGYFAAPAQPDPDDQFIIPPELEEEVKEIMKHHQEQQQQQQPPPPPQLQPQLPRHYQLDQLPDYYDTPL
Method: FIG. 29. PHLPP-1α mediated-dephosphorylation of Akt at Ser473 is okadaic acid-insensitive. 293T cells transfected with HA-PHLPP-1α were serum starved overnight. The cells were then left untreated (lane 1), treated with insulin (100 nM) for 30 minutes (lane 2), treated with insulin for 30 minutes followed by okadaic acid (OA, 1 μM) for 15 minutes (lane 3), or treated with insulin for 30 minutes followed by OA for 15 minutes followed by LY294002 (LY, 30 μM) for 20 minutes (lane 4). Western blots showing phosphorylation of endogenous Akt as detected by P308 and P473 antibodies. Total Akt was detected using the anti-Akt antibody.

MDA-MB-231 cells = assay: apoptosis assay, sub-2N DNA by flow cytometry; type: cell-based; conditions: co-expressed with PHLPP2
Method: Apoptosis assays were performed as described previously (Brognard et al., 2001). Briefly, cells were transfected with different PHLPP expression constructs or siRNAs. In the case of gating for transfected cells, a GFP expression construct was co-transfected into the cells. Approximately 24 hours post-transfection, the cells were switched to low serum medium (DMEM plus 0.1% FBS) and allowed to grow for an additional 48 hours. For LY294002 (25 μM) treatment, the drug was added at the time when the cells were switched into the low serum medium. The cells were collected and stained with propidium iodide (25 μg/ml). Apoptotic cells were defined as sub-2N DNA containing cells. Quantification of apoptosis was obtained using flow cytometry analysis with a Becton Dickinson FACSort.
Apoptotic assays were performed as described above. To determine G1/S ratios, cells were co-transfected with GFP and HA-PHLPP2 and incubated under high serum (10% FBS) conditions for 48 hrs and cells were gated based on GFP expression as described above. For BrdU incorporation assays, cells were transfected with 100 nM siRNA (si-1) and incubated for 48 hrs prior to performing assay following manufacturers protocol (Oncogene Research Products).

Molecule	sensitivity of PHLPP-1α mediated dephosphorylation of Akt at Ser473 (PHLPP-1α)	rescue of the apoptosis induced by PHLPP2 (MDA-MB-231 cells)
C=C1[C@@H](O)[C@@H]2O[C@]3(CC[C@H](/C=C/[C@@H](C)[C@@H]4CC(C)=C[C@@]5(O[C@H](C[C@@](C)(O)C(=O)O)CC[C@H]5O)O4)O3)CC[C@H]2O[C@@H]1[C@@H](O)C[C@H](C)[C@H]1O[C@@]2(CCCCO2)CC[C@H]1C [okadaic acid]	insensitive	–
S473D: phosphomimetic and thus constitutively active Akt construct, resistant to dephosphorylation by PHLPP2	–	two-thirds
